Results reported in patent US20260000763A1, “Methods of Manufacturing Therapeutic Cells” (The Board of Trustees of the Leland Stanford Junior …, priority 2022, published 2026).

Tested on: HA-INO-CAR T cells
Experiment: Ciclopirox treatment of inosine-cultured HA-CAR T cells, memory subsets by flow cytometry
Assay type: cell-based, human
Details: 20 μM CPX for 24 h, day 16, CD8+ inosine-cultured HA-CAR T cells
Source text: Concatenated samples from n=3 donors. […] (Left) Dot plots of representative donor shown.

Q: With Cc1cc(C2CCCCC2)n(O)c(=O)c1 [CPX, ciclopirox] as the molecule, how does the “frequency of central memory-like cells” value read?
A: striking decrease
